{
  "source": "patent US20220340629A1",
  "about": "“Myosin Derived Peptides and Related Compounds with Anticoagulant Activities” (THE SCRIPPS RESEARCH INSTITUTE, priority 0001, published 2022)",
  "key": {"[1]": {"system": "skeletal muscle myosin-supported prothrombin activation by factors Xa and Va", "assay": "Assay 1A: prothrombin activation by factor Xa/factor Va/myosin in purified system", "format": "biochemical, human factors Xa and Va; rabbit skeletal muscle myosin", "details": "for inhibition of myosin-supported prothrombin activation at 100 μM: peptide 100 μM, FIG. 1A; for inhibition of myosin's procoagulant activity: data not shown"}, "[2]": {"biological_target": "skeletal muscle myosin-supported prothrombin activation by factors Xa and Va (Homo sapiens, UniProt P00742)", "sequence (P00742 41-179)": "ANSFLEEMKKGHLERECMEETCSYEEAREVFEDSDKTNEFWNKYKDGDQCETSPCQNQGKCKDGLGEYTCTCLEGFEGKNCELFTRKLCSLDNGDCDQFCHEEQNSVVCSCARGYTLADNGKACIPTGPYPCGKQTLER", "sequence (P00742 235-488)": "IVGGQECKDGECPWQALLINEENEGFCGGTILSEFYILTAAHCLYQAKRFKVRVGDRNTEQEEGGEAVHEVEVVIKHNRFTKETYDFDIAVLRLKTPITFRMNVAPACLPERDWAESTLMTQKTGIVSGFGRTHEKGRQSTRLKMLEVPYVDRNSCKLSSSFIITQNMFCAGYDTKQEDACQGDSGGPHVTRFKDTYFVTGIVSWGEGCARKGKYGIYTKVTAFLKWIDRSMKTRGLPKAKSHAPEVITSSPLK", "sequence (P12259 29-737 partner)": "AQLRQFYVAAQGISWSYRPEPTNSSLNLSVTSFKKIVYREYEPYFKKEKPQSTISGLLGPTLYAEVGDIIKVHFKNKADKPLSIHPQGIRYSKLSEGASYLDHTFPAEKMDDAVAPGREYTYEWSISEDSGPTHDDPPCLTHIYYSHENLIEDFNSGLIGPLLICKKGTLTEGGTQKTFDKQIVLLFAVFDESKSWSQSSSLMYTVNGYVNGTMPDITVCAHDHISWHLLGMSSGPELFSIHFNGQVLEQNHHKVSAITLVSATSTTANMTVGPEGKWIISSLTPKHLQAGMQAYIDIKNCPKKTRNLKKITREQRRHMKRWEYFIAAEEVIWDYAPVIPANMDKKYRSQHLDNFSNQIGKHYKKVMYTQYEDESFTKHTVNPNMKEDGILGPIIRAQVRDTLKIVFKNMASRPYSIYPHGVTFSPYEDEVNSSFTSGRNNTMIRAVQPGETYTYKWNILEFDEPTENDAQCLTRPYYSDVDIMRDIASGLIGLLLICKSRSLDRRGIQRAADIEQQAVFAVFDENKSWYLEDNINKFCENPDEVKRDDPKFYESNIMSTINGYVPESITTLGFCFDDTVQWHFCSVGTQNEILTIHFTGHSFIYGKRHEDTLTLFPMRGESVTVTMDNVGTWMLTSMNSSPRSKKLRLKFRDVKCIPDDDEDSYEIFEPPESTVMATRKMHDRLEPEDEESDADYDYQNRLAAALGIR", "sequence (P12259 1574-2224 partner)": "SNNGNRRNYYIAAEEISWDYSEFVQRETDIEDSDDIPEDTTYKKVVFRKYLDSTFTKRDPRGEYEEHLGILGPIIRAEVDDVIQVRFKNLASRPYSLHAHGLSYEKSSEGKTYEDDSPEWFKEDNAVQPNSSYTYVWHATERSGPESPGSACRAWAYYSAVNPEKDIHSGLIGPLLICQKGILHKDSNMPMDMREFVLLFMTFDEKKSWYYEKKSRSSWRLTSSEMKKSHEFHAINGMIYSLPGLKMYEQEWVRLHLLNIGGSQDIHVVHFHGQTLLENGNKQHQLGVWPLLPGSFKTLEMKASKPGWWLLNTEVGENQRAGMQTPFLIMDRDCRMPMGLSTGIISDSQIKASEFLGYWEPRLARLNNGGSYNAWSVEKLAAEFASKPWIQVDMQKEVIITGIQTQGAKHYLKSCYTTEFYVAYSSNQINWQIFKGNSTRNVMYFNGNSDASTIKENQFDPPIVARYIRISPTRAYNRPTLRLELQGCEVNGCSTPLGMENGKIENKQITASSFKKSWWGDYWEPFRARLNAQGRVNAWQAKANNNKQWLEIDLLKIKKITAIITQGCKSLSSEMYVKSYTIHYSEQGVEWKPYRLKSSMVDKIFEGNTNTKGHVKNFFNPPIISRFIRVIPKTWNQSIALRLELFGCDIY", "assay": "Assay 1A: prothrombin activation by factor Xa/factor Va/myosin in purified system", "format": "biochemical, human factors Xa and Va; rabbit skeletal muscle myosin", "details": "purified system"}, "[3]": {"details": "skeletal muscle myosin, factor Va 5 nM, factor Xa 0.2 nM, prothrombin 0.75 μM, 10 min, read-out: 1A (+myosin)"}},
  "note": "Read-outs that look alike come from different tables or passages of the source. Non-standard residues stand in square brackets, D forms with d. Residues, ends and D or L forms follow the SMILES beside them. NMeA = CN[C@@H](C)C(=O)O; Nle = CCCC[C@H](N)C(=O)O",
  "data": [
    {"compound": "Ac-SNEELNAKKIEFEQFLPMMQAISN-NH2 [ELC99-122]", "values": [
      {"measurement": "inhibition of myosin-supported prothrombin activation at 100 μM", "setting": "[1]", "result": "did not"}
    ]},
    {"compound": "Ac-GAELRHVLATLGEKMKEEEVEALMA-NH (Ac-GAELRHVLATLGEKMKEEEVEALMA-NH2) [ELC149-173]", "values": [
      {"measurement": "inhibition of myosin-supported prothrombin activation at 100 μM", "setting": "[1]", "result": "did not"}
    ]},
    {"compound": "Cc1ccc(S(=O)(=O)NCc2ccccc2)cc1", "note": "[N-benzyl-p-toluene sulfonamide, reference compound]", "values": [
      {"measurement": "inhibition of myosin's procoagulant activity", "setting": "[1]; up to 0.7 mM", "result": "did not inhibit"}
    ]},
    {"compound": "Cc1ccc2c(c1)C(=O)C1(O)CCN(c3ccccc3)C1=N2", "note": "(single isomer, unassigned; (-)) [(-) blebbistatin, reference compound]", "values": [
      {"measurement": "inhibition of myosin's procoagulant activity", "setting": "[1]; up to 65 μM", "result": "did not inhibit"}
    ]},
    {"compound": "COC(=O)N1CCN(Cc2cccc(NC(=O)Nc3ccc(C)nc3)c2F)CC1", "note": "[omecamtiv mecarbil, reference compound]", "values": [
      {"measurement": "inhibition of myosin's procoagulant activity", "setting": "[1]; up to 50 μM", "result": "did not inhibit"}
    ]},
    {"compound": "CN1CCN(CCCN2c3ccccc3Sc3ccc(C(F)(F)F)cc32)CC1", "note": "[TFP, trifluoperazine, reference compound]", "values": [
      {"measurement": "inhibition of myosin-supported prothrombin activation", "setting": "[1]; dose-dependent studies, FIG. 4, TFP 0-100 μM, ELC peptides 0-300 μM", "result": "inhibits"}
    ]},
    {"compound": "CCCC[C@H](NC(=O)[C@H](Cc1c[nH]c2ccccc12)NC(=O)[C@@H]1CCCN1C(=O)[C@H](Cc1c[nH]c2ccccc12)NC(=O)[C@H](Cc1c[nH]cn1)NC(=O)[C@H](CCCCN)NC(=O)[C@@H](NC(=O)[C@H](CC(N)=O)NC(=O)[C@H](CCCC)NC(=O)[C@H](Cc1ccccc1)NC(=O)[C@H](CO)NC(=O)[C@H](CCCNC(=N)N)NC(=O)[C@@H](NC(=O)[C@H](CC(N)=O)NC(=O)[C@H](Cc1ccc(O)cc1)NC(=O)[C@H](CCC(N)=O)NC(=O)[C@@H](NC(=O)[C@H](CS)NC(=O)[C@H](Cc1ccccc1)NC(=O)[C@H](C)N(C)C(=O)[C@H](C)N)[C@@H](C)CC)[C@@H](C)CC)C(C)C)C(=O)N[C@@H](CCCCN)C(N)=O", "note": "[HC191] (H-A[NMeA]FCIQYNIRSF[Nle]NVKHWPW[Nle]K-NH2; N-terminus assumed)", "values": [
      {"measurement": "IC50", "setting": "[2]; prothrombin activation with myosin, read-out: 1A (+ myosin) IC50", "result": 1600, "unit": "nM"}
    ]},
    {"compound": "CC[C@H](C)[C@H](NC(=O)[C@H](C)N)C(=O)N[C@@H](Cc1ccccc1)C(=O)N[C@@H](CS)C(=O)N[C@H](C(=O)N[C@@H](CCC(N)=O)C(=O)N[C@@H](Cc1ccc(O)cc1)C(=O)N[C@@H](CC(N)=O)C(=O)N[C@H](C(=O)N[C@@H](CCCNC(=N)N)C(=O)N[C@@H](CO)C(=O)N[C@@H](Cc1ccccc1)C(=O)N[C@@H](CCSC)C(=O)N[C@@H](CC(N)=O)C(=O)N[C@@H](C)C(=O)N[C@@H](CCCCN)C(=O)N[C@@H](Cc1c[nH]cn1)C(=O)N[C@@H](Cc1c[nH]c2ccccc12)C(=O)N1CCC[C@H]1C(=O)N[C@@H](Cc1c[nH]c2ccccc12)C(=O)N[C@@H](CCSC)C(=O)N[C@@H](CCCCN)C(N)=O)[C@@H](C)CC)[C@@H](C)CC", "note": "[HC130] (H-AIFCIQYNIRSFMNAKHWPWMK-NH2; N-terminus assumed)", "values": [
      {"measurement": "IC50", "setting": "[2]; [3]", "result": 2100, "unit": "nM"}
    ]},
    {"compound": "CC[C@H](C)[C@H](NC(=O)[C@H](CS)NC(=O)[C@H](Cc1ccccc1)NC(=O)[C@H](C)NC(=O)[C@H](C)N)C(=O)N[C@@H](CCC(N)=O)C(=O)N[C@@H](Cc1ccc(O)cc1)C(=O)N[C@@H](CC(N)=O)C(=O)N[C@H](C(=O)N[C@@H](CCCNC(=N)N)C(=O)N[C@@H](CO)C(=O)N[C@@H](Cc1ccccc1)C(=O)N[C@@H](CCSC)C(=O)N[C@@H](CC(N)=O)C(=O)N[C@H](C(=O)N[C@@H](CCCCN)C(=O)N[C@@H](Cc1c[nH]cn1)C(=O)N[C@@H](Cc1c[nH]c2ccccc12)C(=O)N1CCC[C@H]1C(=O)N[C@@H](Cc1c[nH]c2ccccc12)C(=O)N[C@@H](CCSC)C(=O)N[C@@H](CCCCN)C(N)=O)C(C)C)[C@@H](C)CC", "note": "[HC117] (H-AAFCIQYNIRSFMNVKHWPWMK-NH2; N-terminus assumed)", "values": [
      {"measurement": "IC50", "setting": "[2]; [3]", "result": 780, "unit": "nM"}
    ]}
  ]
}
